Results on one compound are retold here after publication PMC5472784, “Pyrazinamide and derivatives block ethylene biosynthesis by inhibiting ACC oxidase” (Nature Communications, 2017).

In series [1] the target is AtACO2 (Arabidopsis thaliana, UniProt Q41931). In words: ACO enzymatic activity assay and kinetic analysis (ethylene by GC-FID). It counts as biochemical. The conditions noted are these: even at a high concentration (2 mM).
Series [2] has as its system Arabidopsis etiolated seedlings (Col-0, eto1-2, ctr1-1, ein2-5). The experiment in a line: Ethylene response phenotype of 3-day-old etiolated seedlings (hypocotyl and root length, root hairs, root cells). Format: in vivo, Arabidopsis thaliana.
The subject of series [3] is ethylene production of Arabidopsis seedlings. The experiment in a line: Measurement of ethylene production of seedlings (GC-FID). The conditions noted are these: etiolated and green seedlings, 50 μM. It counts as in vivo, Arabidopsis thaliana. As for the experimental part:
Ethylene production was determined as follows: 30 3-day-old etiolated or 5-day-old green seedlings of Col-0, eto1-2 or other mutants were selected randomly and sealed in a 30 ml vial containing 3 ml liquid MS medium supplemented with indicated treatments. The vial was sealed with a rubber stopper for 24 h at 22 °C prior to ethylene sampling. A 250 μl sample of the headspace gas was withdrawn using a gas-tight syringe from each chamber through the septum stopper, and injected into a gas chromatograph (Agilent 6890NGC, Agilent Technologies, USA) that was equipped with a HP-PLOTQ column (40 m × 530 μm × 40 μm) and a flame ionization detector (FID)[44]. Separations were carried out at 60 °C using N2 as the carrier gas. The area of the ethylene peak was integrated with Agilent Chemstation and results were expressed as the average relative ethylene production (%) of each treatment.

Series [4] deals with Arabidopsis PSB-D suspension cultured cells. In words: Ethylene production of suspension cultured cells. It counts as cell-based, Arabidopsis thaliana.
Series [5] relates to ACC conjugating enzymes (ACC and M-ACC content of eto1-2 seedlings). In words: Quantification of ACC and M-ACC. It counts as in vivo, Arabidopsis thaliana. The conditions noted are these: 10-day-old green seedlings, 50 μM PZA. As for the experimental part: 10-day-old green seedlings of eto1-2 under different treatments were ground in liquid nitrogen, and extracted with 5% SSA (sulfosalicylic acid). For ACC measurement, the extract was oxidized with 2 mM HgCl2, 0.33% NaOCl and 0.2 M NaOH, reacted on ice for 4 min, and then the ethylene production was determined with GC-FID. For M-ACC measurement, the extract was hydrolyzed using 2 M HCl followed by oxidization and ethylene production determination, and the content of ACC and M-ACC were calculated based on the ethylene production and efficiency of oxidization.

Series [6] relates to EIN3. In words: EIN3 protein level (Western blot) and pEBS:GUS staining. Format: in vivo, Arabidopsis thaliana. The conditions noted are these: 1 μM ACC, 50, 100 and 200 μM PZA.
Series [7] concerns Arabidopsis PSB-D suspension cultured cells. The experiment in a line: Wayne Test, conversion of PZA to POA in suspension cultured cells. It counts as cell-based, Arabidopsis thaliana. The conditions noted are these: 500 μM PZA, 24 h, abolished in boiled cells. As for the experimental part:
500 μM PZA were added to 50 ml Arabidopsis suspension cell log phase cultures or boiled cultures and incubated at 27 °C for 24 h. 1 ml cell culture was collected after centrifugation, and 10 μl 2% ferrous sulfate was added to the supernatant for colour development. The absorbance at 450 nm of each samples was measured by spectrophotometer and the POA concentration was calculated according to the POA-Abs450 standard curve drawn using the reference solutions of POA.
Arabidopsis suspension cells were cultured in liquid MS medium in the presence or absence of 500 μM PZA for 24 h. The culture supernatant was collected by centrifugation and alkalized (pH>11) using sodium hydroxide (NaOH), followed by extracting with ethyl acetate twice to eliminate lipid-soluble molecules. The aqueous phase was collected and acidified (pH<2) using hydrochloric acid (HCl). The protonated cultures were extracted with ethyl acetate five times to enrich POA. The resulting samples were concentrated by reduced pressure distillation and analysed using a Fourier Transform Ion Cyclotron Resonance Mass Spectrometer (Solarix XR, Bruker).

Series [8] deals with T1, AtNIC2 (Arabidopsis thaliana, UniProt Q9FMX7).
T1 sequence (Q9FMX7 1-198): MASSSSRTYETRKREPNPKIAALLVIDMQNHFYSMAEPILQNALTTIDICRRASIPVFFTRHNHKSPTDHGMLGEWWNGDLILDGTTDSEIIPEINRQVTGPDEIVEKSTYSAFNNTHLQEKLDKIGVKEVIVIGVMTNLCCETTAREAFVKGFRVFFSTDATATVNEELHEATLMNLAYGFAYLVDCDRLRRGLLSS
The experiment in a line: In vitro PZase assay (TLC, NMR). Format: biochemical. The conditions noted are these: 5 mM PZA, 12 h, 30 °C. The text has this:
(§1) Silica TLC plates were developed in dichloromethane/methanol (3:1), and analysed with ultraviolet.
For NMR analysis, the AtNIC2-catalysed PZase reaction was acidified using HCl and extracted using ethyl acetate. The solvent was removed by reduced pressure distillation. The sample was then re-dissolved in dimethyl sulfoxide-d6 and analysed using Bruker-400 MHz NMR (ARX400, Bruker).

The target of series [9] is T2, AtNIC3 (Arabidopsis thaliana, UniProt Q9FMX8).
T2 sequence (Q9FMX8 1-198): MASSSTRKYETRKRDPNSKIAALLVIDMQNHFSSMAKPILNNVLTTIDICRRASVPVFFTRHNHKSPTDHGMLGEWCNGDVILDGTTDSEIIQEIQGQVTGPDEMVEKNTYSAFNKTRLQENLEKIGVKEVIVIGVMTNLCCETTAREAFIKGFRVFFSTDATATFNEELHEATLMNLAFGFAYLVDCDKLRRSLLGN
In words: In vitro PZase assay (TLC). It counts as biochemical. The conditions noted are these: 5 mM PZA, 12 h, 30 °C.
Text: as §1

For series [10], the system named is GA response. The experiment in a line: GA response, pRGA::GFP-RGA reporter seedlings. It counts as in vivo, Arabidopsis thaliana. The conditions noted are these: pRGA::GFP-RGA seedlings, 20, 50, 100 μM PZA. As for the experimental part:
(§2) GFP fluorescence and propidium iodide staining signals in roots were detected using Zeiss LSM-710 microscope. All seedlings were grown in the dark for 3 days on MS medium supplemented with the indicated treatments, and then mounted on glass slides and observed in water. For propidium iodide staining, roots were visualized in the presence of propidium iodide without fixation. ImageJ was used to process images and to quantify the fluorescent intensity of GFP.

In series [11] the test system is anthocyanin accumulation. The experiment in a line: Anthocyanin measurement. It counts as in vivo, Arabidopsis thaliana. The conditions noted are these: 6-day-old Col-0 green seedlings. The text has this: 6-day-old green seedlings grown on MS medium supplemented with different concentration of PZA were sampled for anthocyanin measurement by spectrophotometry. The content of anthocyanin is presented as (A535−A650)/g.

Series [12] concerns auxin response. In words: Auxin response, pDR5::GFP reporter lines. Format: in vivo, Arabidopsis thaliana. The conditions noted are these: pDR5::GFP/Col-0 and pDR5::GFP/ein2-5. As for the experimental part:
as §2

Chain of AtACO2 (Q41931 1-303): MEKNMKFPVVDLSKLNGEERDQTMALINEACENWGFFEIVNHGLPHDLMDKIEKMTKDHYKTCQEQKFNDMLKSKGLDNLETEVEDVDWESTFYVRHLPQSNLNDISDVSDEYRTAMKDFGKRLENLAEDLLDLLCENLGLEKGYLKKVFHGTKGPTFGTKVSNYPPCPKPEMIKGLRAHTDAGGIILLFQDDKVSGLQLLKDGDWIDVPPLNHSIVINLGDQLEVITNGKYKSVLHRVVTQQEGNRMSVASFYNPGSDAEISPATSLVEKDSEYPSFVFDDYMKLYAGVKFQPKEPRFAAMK

Consider `NC(=O)c1cnccn1` [PZA, pyrazinamide], for which the “inhibition of the activity of AtACO2” value in series [1] is given as “no inhibition”. Also, in [2] (50 μM), the “cell elongation in the root maturation zone of eto1-2” value is “promoted cell elongation”, the “root hair formation of eto1-2” value is given as “effectively suppressed” and the “size of the cell division zone of eto1-2 root” value is recorded as “little effect”. Besides, in series [2] (3-day-old etiolated eto1-2 seedlings, MS medium with compound (50 μM shown)), the “short-root and short-hypocotyl phenotype of eto1-2” value is “partially suppressed”. Besides, the “phenotype of ethylene signalling mutants ctr1-1 and ein2-5” value in [2] (3-day-old etiolated seedlings) is recorded as “little effect”. The “ACC-induced short hypocotyl and root phenotype” value in [2] (Col-0, 1 μM ACC, 50 or 100 μM PZA) was “significantly suppressed”. For the same compound, in [2] (Col-0, 2 p.p.m. ethylene, 50 or 100 μM PZA), the ethylene-induced phenotype entry was “no effect”. Besides, the “lengths of hypocotyls and roots of wild-type (Col-0)” value in series [2] (etiolated seedlings, increasing doses (1-100 μM)) is on record as “slightly promoted”. In addition, the “ethylene production of eto1-2” value in [3] is reported as “effectively inhibited”. Besides, in series [4], the “ethylene production in suspension cultured cells” value was “inhibited”. Moreover, in series [5], the “ACC level in eto1-2” value is listed as “slight increase” and the “M-ACC level in eto1-2” value is “almost no change”. Further, the “ACC-induced EIN3 protein accumulation and transcriptional activation of target promoter” value in series [6] is “inhibited”. Besides, in [7], the “conversion into POA in PSB-D culture” value was “converted into POA”. Moreover, the “conversion of PZA into POA by AtNIC2” value in series [8] was “able to convert PZA into POA”. Besides, the “conversion of PZA into POA by AtNIC3” value in [9] is “able to convert PZA into POA”. In addition, the “effect on GA response” value in series [10] is listed as “virtually no effect”. Also, the “effect on anthocyanin accumulation” value in series [11] is listed as “virtually no effect”. The “effect on auxin response” value in series [12] is “EIN2-dependent manner”.
